ChEMBL document CHEMBL3870330, “Exploring the anti-biofilm activity of cinnamic acid derivatives in Candida albicans” (2016)
Converted amounts (≈) assume the structure as drawn.

How the values were obtained:
Assay type in all cases: functional
Candida albicans [1] = test: Antifungal activity against planktonic cells of Candida albicans ATCC 10231 after 48 hrs by microdilution assay; conditions: ATCC 10231, 48 h
Candida albicans [2] = test: Antibiofilm activity against Candida albicans ATCC 10231 after 24 hrs by XTT reduction assay
Candida albicans [3] = test: Antibiofilm activity against mature biofilm of Candida albicans ATCC 10231 after 24 hrs by XTT reduction assay

Row | SMILES | MIC50 (Candida albicans [1]) | MBIC50 (Candida albicans [2]) | MBIC50 (Candida albicans [3])
1 | O=C(/C=C/c1ccccc1)OC(Cn1ccnc1)c1ccc(Cl)cc1Cl (stereo unspecified) | 2 to 16 µg/mL (≈ 5.16 to 41.3 µM) | 2 to 64 µg/mL | 8 to 64 µg/mL
2 | O=C(O)/C=C/c1ccccc1 [CINNAMIC ACID] | > 128 µg/mL | >128 µg/mL | >128 µg/mL
3 | O=C(/C=C/c1ccccc1)OC(Cn1cncn1)(Cn1cncn1)c1ccc(F)cc1F | 0.5 to 64 µg/mL (≈ 1.15 to 147 µM) | 4 to 128 µg/mL | >32 to 128 µg/mL
4 | O=C(/C=C/c1ccccc1)Nc1nc2ccc([N+](=O)[O-])cc2s1 | > 128 µg/mL | >=64 - 128 ug ml-1 | >=64 - 128 ug ml-1
5 | O=C(/C=C/c1ccccc1)N1CCN(c2ncccc2[N+](=O)[O-])CC1 | > 128 µg/mL | >128 µg/mL | >128 µg/mL
6 | O=C(/C=C/c1ccccc1)OCc1ccc([N+](=O)[O-])o1 | 2 to 16 µg/mL (≈ 7.32 to 58.6 µM) | 16 to 64 µg/mL | 64 µg/mL
7 | O=C(/C=C/c1ccccc1)NCCCn1ccnc1 | > 128 µg/mL | >128 µg/mL | >128 µg/mL
8 | O=C(/C=C/c1ccccc1)NCCc1c[nH]c2ccccc12 | > 128 µg/mL | 8 to 128 µg/mL | >128 µg/mL
9 | OC(Cn1cncn1)(Cn1cncn1)c1ccc(F)cc1F [FLUCONAZOLE] | 0.5 µg/mL (≈ 1.63 µM) | 128 µg/mL | >128 µg/mL
10 | O=C(/C=C/c1ccccc1)N1CCN(c2ccc([N+](=O)[O-])cc2)CC1 | 32 to 128 µg/mL (≈ 94.8 to 379 µM) | >128 µg/mL | >32 to 128 µg/mL
11 | Cc1ncc([N+](=O)[O-])n1CCOC(=O)/C=C/c1ccccc1 | ≥ 128 µg/mL | >=32 - 128 ug ml-1 | >128 µg/mL
12 | O=C(/C=C/c1ccccc1)OCc1ccco1 | 64 to 128 µg/mL (≈ 280 to 561 µM) | >=16 - 128 ug ml-1 | >=128 ug ml-1
